According to ChEMBL document CHEMBL3885861, “Open TG-GATES”:

Species: Rattus norvegicus
Test: Open TG-GATES - Regimen: Single
Assay type: toxicity, organism-based, Sprague-Dawley
Design: regimen Single, gender Male, age 6 weeks
Details: in vivo, po, route gavage; for WBC / APTT / Bas / Eos / Fbg / Hb / Ht / Lym / MCH / MCHC / MCV / Mono / Neu / PT / Plat / RBC / Ret: tissue Blood; for KIDNEY_L / KIDNEY_R / KIDNEY_TOTAL: tissue Kidney; for LIVER: tissue Liver; for A/G / ALP / ALT / AST / BUN / CRE / Ca / Cl / DBIL / GLC / IP / K / LDH / Na / PL / RALB / TBIL / TC / TG / TP / gamma-GTP: tissue Plasma
[1] = 2 mg/kg, 9 h, dose level Middle
[2] = 2 mg/kg, 24 h, dose level Middle

Molecule `COc1ccc2c(c1)c(CC(=O)O)c(C)n2C(=O)c1ccc(Cl)cc1` [INDOMETHACIN] has a WBC [1] of 114.3 x10_2/uL, a KIDNEY_L [1] of 0.9 g and a KIDNEY_R [1] of 0.9 g. For the same molecule, the KIDNEY_TOTAL [1] was 1.8 g, the LIVER [1] was 8.3 g and the A/G [1] was 2.7. For the same molecule, the ALP [1] was 944 IU/L, the ALT [1] was 35.2 IU/L and the AST [1] was 65.6 IU/L. It also gave a BUN [1] of 14.2 mg/dL, a CRE [1] of 0.5 mg/dL and a Ca [1] of 10.2 mg/dL. The Cl [1] was 106.8 meq/L, the DBIL [1] was 0.01 mg/dL and the GLC [1] was 199.6 mg/dL. The IP [1] was 10.5 mg/dL, the K [1] was 5 meq/L and the LDH [1] was 80.8 IU/L. The Na [1] was 138.2 meq/L, the PL [1] was 125.8 mg/dL and the RALB [1] was 3.9 g/dL. The TBIL [1] was 0.5 mg/dL, the TC [1] was 72.2 mg/dL and the TG [1] was 35.4 mg/dL. It also gave a TP [1] of 5.3 g/dL, a gamma-GTP [1] of 1.8 IU/L and a TERMINAL_BW [2] of 209.2 g. It also gave an APTT [2] of 16.1 s, a Bas [2] of 0% and an Eos [2] of 0.8%. The Fbg [2] was 204.6 mg/dL, the Hb [2] was 13.4 g/dL and the Ht [2] was 40.7%. The Lym [2] was 80.6%, the MCH [2] was 21.5 pg and the MCHC [2] was 33%. For the same molecule, the MCV [2] was 65 fL, the Mono [2] was 8.8% and the Neu [2] was 10.2%. The PT [2] was 12.1 s, the Plat [2] was 96.4 x10_4/uL and the RBC [2] was 626.8 x10_4/ul. For the same molecule, the Ret [2] was 8.6%, the WBC [2] was 112.4 x10_2/uL and the KIDNEY_L [2] was 0.9 g. For the same molecule, the KIDNEY_R [2] was 0.9 g, the KIDNEY_TOTAL [2] was 1.9 g and the LIVER [2] was 10.1 g. For the same molecule, the A/G [2] was 2.4, the ALP [2] was 1232.8 IU/L and the ALT [2] was 38.2 IU/L. It also gave an AST [2] of 70.6 IU/L, a BUN [2] of 16.4 mg/dL and a CRE [2] of 0.5 mg/dL. The Ca [2] was 10.4 mg/dL, the Cl [2] was 106.4 meq/L and the DBIL [2] was 0.004 mg/dL. It also gave a GLC [2] of 195.4 mg/dL, an IP [2] of 8.1 mg/dL and a K [2] of 4.9 meq/L. The LDH [2] was 83.6 IU/L, the Na [2] was 138.4 meq/L and the PL [2] was 140.6 mg/dL. For the same molecule, the RALB [2] was 3.9 g/dL, the TBIL [2] was 0.3 mg/dL and the TC [2] was 75.4 mg/dL. For the same molecule, the TG [2] was 95.2 mg/dL, the TP [2] was 5.6 g/dL and the gamma-GTP [2] was 1.4 IU/L. For the same molecule, the TERMINAL_BW (5 mg/kg, 3 h, dose level High) was 201.4 g, the TERMINAL_BW (5 mg/kg, 3 h, dose level Low) was 224.1 g and the APTT (5 mg/kg, 3 h, dose level High) was 16.5 s. It also gave a Bas (5 mg/kg, 3 h, dose level High) of 0%, an Eos (5 mg/kg, 3 h, dose level High) of 0.2% and a Fbg (5 mg/kg, 3 h, dose level High) of 211 mg/dL. It also gave a Hb (5 mg/kg, 3 h, dose level High) of 13.6 g/dL, a Ht (5 mg/kg, 3 h, dose level High) of 41.1% and a Lym (5 mg/kg, 3 h, dose level High) of 78.4%. For the same molecule, the MCH (5 mg/kg, 3 h, dose level High) was 21.5 pg, the MCHC (5 mg/kg, 3 h, dose level High) was 33.3% and the MCV (5 mg/kg, 3 h, dose level High) was 64.8 fL. It also gave a Mono (5 mg/kg, 3 h, dose level High) of 9%, a Neu (5 mg/kg, 3 h, dose level High) of 12.4% and a PT (5 mg/kg, 3 h, dose level High) of 12.5 s. The Plat (5 mg/kg, 3 h, dose level High) was 108.6 x10_4/uL, the RBC (5 mg/kg, 3 h, dose level High) was 634.6 x10_4/ul and the Ret (5 mg/kg, 3 h, dose level High) was 8.9%. It also gave a WBC (5 mg/kg, 3 h, dose level High) of 130.2 x10_2/uL, an APTT (5 mg/kg, 3 h, dose level Low) of 18.2 s and an Eos (5 mg/kg, 3 h, dose level Low) of 0.8%. For the same molecule, the Fbg (5 mg/kg, 3 h, dose level Low) was 222.6 mg/dL, the Hb (5 mg/kg, 3 h, dose level Low) was 13.9 g/dL and the Ht (5 mg/kg, 3 h, dose level Low) was 38%. For the same molecule, the Lym (5 mg/kg, 3 h, dose level Low) was 79.4%, the MCH (5 mg/kg, 3 h, dose level Low) was 22.1 pg and the MCHC (5 mg/kg, 3 h, dose level Low) was 36.6%. For the same molecule, the MCV (5 mg/kg, 3 h, dose level Low) was 60.4 fL, the Mono (5 mg/kg, 3 h, dose level Low) was 2.8% and the Neu (5 mg/kg, 3 h, dose level Low) was 15.6%. For the same molecule, the PT (5 mg/kg, 3 h, dose level Low) was 11.7 s, the Plat (5 mg/kg, 3 h, dose level Low) was 115.7 x10_4/uL and the RBC (5 mg/kg, 3 h, dose level Low) was 629.4 x10_4/ul. For the same molecule, the Ret (5 mg/kg, 3 h, dose level Low) was 7.6%, the WBC (5 mg/kg, 3 h, dose level Low) was 76.1 x10_2/uL and the KIDNEY_L (5 mg/kg, 3 h, dose level High) was 0.9 g. It also gave a KIDNEY_R (5 mg/kg, 3 h, dose level High) of 1 g, a KIDNEY_TOTAL (5 mg/kg, 3 h, dose level High) of 1.9 g and a KIDNEY_L (5 mg/kg, 3 h, dose level Low) of 1 g. The KIDNEY_TOTAL (5 mg/kg, 3 h, dose level Low) was 2.1 g, the LIVER (5 mg/kg, 3 h, dose level High) was 9.2 g and the LIVER (5 mg/kg, 3 h, dose level Low) was 9.6 g. The A/G (5 mg/kg, 3 h, dose level High) was 1.5, the ALP (5 mg/kg, 3 h, dose level High) was 1085.6 IU/L and the ALT (5 mg/kg, 3 h, dose level High) was 42.6 IU/L. The AST (5 mg/kg, 3 h, dose level High) was 70.2 IU/L, the BUN (5 mg/kg, 3 h, dose level High) was 11 mg/dL and the CRE (5 mg/kg, 3 h, dose level High) was 0.4 mg/dL. It also gave a Ca (5 mg/kg, 3 h, dose level High) of 10.5 mg/dL, a Cl (5 mg/kg, 3 h, dose level High) of 105.2 meq/L and a DBIL (5 mg/kg, 3 h, dose level High) of 0.034 mg/dL. For the same molecule, the GLC (5 mg/kg, 3 h, dose level High) was 191 mg/dL, the IP (5 mg/kg, 3 h, dose level High) was 9.5 mg/dL and the K (5 mg/kg, 3 h, dose level High) was 5 meq/L. The LDH (5 mg/kg, 3 h, dose level High) was 172 IU/L, the Na (5 mg/kg, 3 h, dose level High) was 137 meq/L and the PL (5 mg/kg, 3 h, dose level High) was 126.2 mg/dL. The RALB (5 mg/kg, 3 h, dose level High) was 3.6 g/dL, the TBIL (5 mg/kg, 3 h, dose level High) was 0.3 mg/dL and the TC (5 mg/kg, 3 h, dose level High) was 71.8 mg/dL. The TG (5 mg/kg, 3 h, dose level High) was 55 mg/dL, the TP (5 mg/kg, 3 h, dose level High) was 6.1 g/dL and the gamma-GTP (5 mg/kg, 3 h, dose level High) was 1.2 IU/L. It also gave an A/G (5 mg/kg, 3 h, dose level Low) of 1.6, an ALP (5 mg/kg, 3 h, dose level Low) of 872.4 IU/L and an ALT (5 mg/kg, 3 h, dose level Low) of 37.8 IU/L. It also gave an AST (5 mg/kg, 3 h, dose level Low) of 76.4 IU/L, a BUN (5 mg/kg, 3 h, dose level Low) of 10.8 mg/dL and a Cl (5 mg/kg, 3 h, dose level Low) of 103 meq/L. The DBIL (5 mg/kg, 3 h, dose level Low) was 0.068 mg/dL, the GLC (5 mg/kg, 3 h, dose level Low) was 187.6 mg/dL and the IP (5 mg/kg, 3 h, dose level Low) was 9.3 mg/dL. It also gave a K (5 mg/kg, 3 h, dose level Low) of 4.2 meq/L, an LDH (5 mg/kg, 3 h, dose level Low) of 213 IU/L and a Na (5 mg/kg, 3 h, dose level Low) of 140.8 meq/L. The PL (5 mg/kg, 3 h, dose level Low) was 145.6 mg/dL, the RALB (5 mg/kg, 3 h, dose level Low) was 3.3 g/dL and the TBIL (5 mg/kg, 3 h, dose level Low) was 0.1 mg/dL. For the same molecule, the TC (5 mg/kg, 3 h, dose level Low) was 85.4 mg/dL.
